Earlier results in patent US20020192255A1, “Liquid emanator device to deliver self-suspending insecticide droplets” (priority 2001, published 2002).

Details: thermal decomposition temperature

| SMILES | decomposition of the chemical occurs above |
| --- | --- |
| C#CCC1=C(C)C(OC(=O)C2C(C=C(C)C)C2(C)C)CC1=O (mixture of isomers) [ETOC-TG, (+)-2-methyl4-oxo-3-(2-propynyl)-2-cyclopentenyl (+)-cis/trans-chrysanthemate] | above 608 ° F. |
| CC1(C)[C@H](C=C(Cl)Cl)[C@H]1C(=O)OCc1c(F)c(F)cc(F)c1F [transfluthrin] | above 392 ° F. |
